According to patent US8329390B2, “Detection of transmembrane potentials using N,N,N′-trialkyl thiobarbituric acid-derived polymethine oxonols” (priority 2004, dated 2012):

Assay: Absorption and fluorescence spectral properties
Type: physicochemical
Source text: For all the syntheses, all starting materials and reagents were of the highest purity available (Aldrich Chemical Company, Milwaukee, Wis.) and used without further purification, except where noted. Solvents were HPLC grade (Fisher Scientific, Pittsburgh, Pa.) and were dried over activated molecular sieves. NMR spectra were acquired on a Varian Gemini 200 MHz spectrometer. Absorption and fluorescence spectra were taken respectively on a Cary 50 BIO and Varain Eclipse (Varian, Inc., Palo Alto, Calif.).

Compound: CN1C(=O)C(=C/C=C/c2c(O)[nH]c(=S)n(C)c2=O)C(=O)N(C)C1=S [Compound 4]
- absorption maximum: 532 nm
- emission maximum: 555 nm
- ext. coefficient (at 532 nm): 175,000 M^−1 cm^−1
- quantum yield (in octanol): > 0.2
